Literature values, collected in patent US20160206617A1, “COMPOSITIONS AND THERAPEUTIC METHODS FOR ACCELERATED PLAQUE REGRESSION” (RESVERLOGIX CORP., priority 2013, published 2016).
Read-outs that look alike come from different tables or passages of the source.

Legend:
ApoA-I = conditions: in vitro and in vivo
atherosclerosis [1] = conditions: REVERSAL; 2 years; pravastatin 40 mg daily, atorvastatin 80 mg daily
atherosclerosis [2] = conditions: SATURN; 2 years; rosuvastatin 40 mg daily, atorvastatin 80 mg daily
atherosclerosis [3] = test system: atherosclerosis

SMILES | effect on plasma levels of ApoA-I and HDL (ApoA-I) | median change in PAV (atherosclerosis [1]) | median change in PAV (atherosclerosis [2]) [%] | median change PAV (atherosclerosis [3]; ASTEROID, 2 years, rosuvastatin 40 mg daily, all patients) [%] | median decrease in PAV from baseline (atherosclerosis [3]; ASTEROID, subgroup with average HDL-C during treatment less than 40 mg/dL) [%] | PAV decrease (median change) (atherosclerosis [3]; FIG. 8, rosuvastatin 40 mg without RVX-208, after 104 weeks, below median HDL) [%]
COc1cc(OC)c2c(=O)[nH]c(-c3cc(C)c(OCCO)c(C)c3)nc2c1 [RVX-208, 2-(4-(2-hydroxyethoxy)-3,5-dimethylphenyl)-5,7-dimethoxyquinazolin-4(3H)-one] | increase plasma levels of ApoA-I and HDL | – | – | – | – | –
CC(C)c1c(C(=O)Nc2ccccc2)c(-c2ccccc2)c(-c2ccc(F)cc2)n1CC[C@@H](O)C[C@@H](O)CC(=O)O [atorvastatin] | – | +0.2% | −0.99 | – | – | –
CC(C)c1nc(N(C)S(C)(=O)=O)nc(-c2ccc(F)cc2)c1/C=C/[C@@H](O)C[C@@H](O)CC(=O)O [rosuvastatin, (3R,5S,6E)-7-[4-(4-fluorophenyl)-2-(N-methylmethanesulfonamido)-6-(propan-2-yl)pyrimidin-5-yl]-3,5-dihydroxyhept-6-enoic acid] | – | – | −1.22 | −0.79 | −1.3 | 1.30
